The results in this text go back to patent US10889569B2, “Condensed ring group azacyclobutyl triazole derivative, preparation method therefor and use thereof in medicine” (Jiangsu Hengrui Medicine Co., Ltd., priority 2016, dated 2021).

Type in all cases: cell-based
The target of assay [1] is human OTR (Homo sapiens, UniProt P30559). The experiment in a line: Inhibition activity on human OTR (Fluo-4 calcium assay, HEK293/human OTR stably transfected cells). As to conditions: oxytocin 3 nM. The method in brief:
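HEK293 cells stably expressing human OTR, loaded with Fluo-4 for 30 min at 37 °C, were preincubated 10 min at room temperature with compound (stocks 10^1–10^6 nM). Oxytocin (3 nM as added) then triggered calcium signal, read immediately at 494/516; IC50 fitted from fluorescence versus concentration.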

The target of assay [2] is human V2R (Homo sapiens (Human), UniProt P30518). The experiment in a line: Inhibition activity on human V2R (cAMP HTRF assay, HEK293/human V2R pool cells). The conditions noted are these: vasopressin. The protocol:
The inhibition effect of the compounds of the present invention on the activity of human V2R protein expressed in HEK293/human V2R cells was determined by the following experimental method:
The pcDNA3.1-V2R plasmid was transferred into HEK293 cells with the Lipofectamine® 3000 transfection reagent; G418 was added on the next day, and the HEK293/human V2R pool cell lines were obtained.
HEK293/human V2R pool cells were dissociated with the cell dissociation solution (enzyme-free), thereby dissociating the cells from the cell culture dish into individual cells. Then the cell solution was blown well, and centrifuged to remove the supernatant. The cells were resuspended in the test buffer 1 (1×HBSS+20 mM HEPES+0.1% BSA) and counted. The cell density was adjusted to 1250 cells/5 μl, i.e., 2.5*10^5/ml.
The compounds were formulated into a series of concentrations of 20 mM, 6.67 mM, 2.22 mM, 0.74 mM, 0.25 mM, 0.08 mM, 27.4 μM, 9.14 μM, 3.05 μM, 1.02 μM, 0.34 μM and 0 μM (DMSO) with pure DMSO. The compounds were then diluted into a 4-fold working concentration solution with the test buffer 2 (test buffer 1+1 mM IBMX).
Agonist: 460 μM vasopressin was used as the mother liquor, which was formulated at 2 μM with DMSO, and then diluted to 0.5 nM with the test buffer 2.
Standards: The first point was 20 μl of a stock solution (2848 nM), which was diluted successively to a total of eleven concentrations in a 4-fold concentration gradient with the test buffer 1 from the second point.
1. The well-mixed cells were added to a 384-well plate (5 μl/well) without changing the tip.
2. The test compounds and positive compound formulated were added (2.5 μl/well), and the tips were changed.
3. The plate was centrifuged at 1000 rpm for 1 min, shaken for 30 sec to mix well, and incubated at room temperature for 30 min.
4. The standard curve wells were added with the test buffer 2 (5 μl/well).
5. The formulated agonist was added (2.5 μl/well), and the tips were changed; the plate was centrifuged at 1000 rpm for 1 min, shaken for 30 sec to mix well, and incubated at room temperature for 30 min.
6. cAMP-d2 (a component in the cAMP dynamic 2 kit) and Anti-cAMP-Eu-Cryptate (a component in the cAMP dynamic 2 kit) were formulated in the dark, which were then mixed well with cAMP lysate (a component in the cAMP dynamic 2 kit) in a ratio of 1:4. Each well was added with the formulated cAMP-d2 solution (5 μl/well), followed by addition of Anti-cAMP-Eu-Cryptate (5 μl/well). The plate was shaken for 30 sec to mix well, and incubated in the dark at room temperature for 1 h.
The HTRF Signals were Read by the PheraStar Multi-Function Microplate Reader.
The data in this test was processed using the data processing software Graphpad Prism.
The inhibition activity of the compounds of the present invention on human V2R was determined by the above test, and the IC50 values obtained are shown in Table 4.

The target in assay [3] is human V1bR (Homo sapiens, UniProt P47901). Kind of assay: Inhibition activity on human V1bR (Fluo-4 calcium assay, HEK293/human V1bR pool cells). The conditions noted are these: vasopressin 3 nM. The method, then:
The inhibition effect of the compounds of the present invention on the activity of human V1bR protein expressed in HEK293/human V1bR cells was determined by the following experimental method:
The pcDNA3.1-V1bR plasmid was transferred into HEK293 cells with the Lipofectamine® 3000 transfection reagent; G418 was added on the next day, and the HEK293/human V1bR pool cell lines were obtained.
HEK293/human V1bR pool cells were inoculated in a 96-well plate with an inoculation density of 25,000 cells/well one day in advance. On the next day, a loading buffer containing Fluo-4 dye was formulated using the reagents in the Fluo-4 NW calcium assay kit, and the culture medium was then removed; 100 μl of the loading buffer containing Fluo-4 dye were added to each well, and the plate was incubated at 37° C. for 30 minutes. After that, the plate was moved to room temperature and equilibrated for 10 minutes. The compounds were formulated into 10^6, 10^5, 10^4, 10^3, 10^2 and 10^1 nM. 1 μl of the compounds in each concentration was added to each well, and the plate was incubated at room temperature for 10 minutes. 50 μl of vasopressin polypeptide (3 nM) were automatically added by the machine, and the values were immediately detected at 494/516 nM by the flexstation 3 microplate reader. IC50 values of the compounds were calculated by Graphpad prism software using fluorescence signals corresponding to different concentrations.
The inhibition activity of the compounds of the present invention on human V1bR was determined by the above test, and the obtained IC50 values are shown in Table 3.

pIC50: −log10 of the molar value.

human V2R, sequence (P30518 whole entry): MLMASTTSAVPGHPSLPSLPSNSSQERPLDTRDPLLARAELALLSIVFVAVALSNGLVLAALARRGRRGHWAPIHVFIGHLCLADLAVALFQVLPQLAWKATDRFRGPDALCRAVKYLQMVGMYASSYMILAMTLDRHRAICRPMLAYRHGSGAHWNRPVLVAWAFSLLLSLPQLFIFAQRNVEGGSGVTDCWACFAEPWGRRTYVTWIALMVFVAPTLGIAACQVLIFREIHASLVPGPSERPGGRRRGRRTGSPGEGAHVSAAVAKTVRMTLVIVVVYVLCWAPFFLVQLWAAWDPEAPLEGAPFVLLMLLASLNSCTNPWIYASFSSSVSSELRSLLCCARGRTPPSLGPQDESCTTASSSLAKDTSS

By pIC50 is commonly meant the IC50 on a negative log10 scale, so that one unit is a factor of ten. For the compound `COCc1nnc(N2CC(c3cccc4cc(F)ccc34)C2)n1-c1ccc(OC)nc1` [Example 2, 5-(3-(3-(6-Fluoronaphthalen-1-yl)azetidin-1-yl)-5-(methoxymethyl)-4H-1,2,4-triazol-4-yl)-2-methoxypyridine], the pIC50 is 8.70 in assay [1], 5.31 in assay [2] and 4.59 in assay [3].
The corresponding values for `COCc1nnc(N2CC(n3cc(C)c4cc(F)ccc43)C2)n1-c1ccc(OC)nc1` [Example 17, 5-Fluoro-1-(1-(5-(methoxymethyl)-4-(6-methoxypyridin-3-yl)-4H-1,2,4-triazol-3-yl)azetidin-3-yl)-3-methyl-1H-indole] are 7.19, 4.96 and 4.70.
